{"source": "patent US20240269139A1", "about": "“COMPOUNDS FOR TARGETED PROTEIN DEGRADATION OF KINASES” (DANA-FARBER CANCER INSTITUTE, INC., priority 2020, published 2024)", "type_in_all_cases": "cell-based", "key": {"[1]": {"target": "T1, protein kinases (human kinome) (Homo sapiens, UniProt O14976)", "T1 sequence (O14976 1-1311)": "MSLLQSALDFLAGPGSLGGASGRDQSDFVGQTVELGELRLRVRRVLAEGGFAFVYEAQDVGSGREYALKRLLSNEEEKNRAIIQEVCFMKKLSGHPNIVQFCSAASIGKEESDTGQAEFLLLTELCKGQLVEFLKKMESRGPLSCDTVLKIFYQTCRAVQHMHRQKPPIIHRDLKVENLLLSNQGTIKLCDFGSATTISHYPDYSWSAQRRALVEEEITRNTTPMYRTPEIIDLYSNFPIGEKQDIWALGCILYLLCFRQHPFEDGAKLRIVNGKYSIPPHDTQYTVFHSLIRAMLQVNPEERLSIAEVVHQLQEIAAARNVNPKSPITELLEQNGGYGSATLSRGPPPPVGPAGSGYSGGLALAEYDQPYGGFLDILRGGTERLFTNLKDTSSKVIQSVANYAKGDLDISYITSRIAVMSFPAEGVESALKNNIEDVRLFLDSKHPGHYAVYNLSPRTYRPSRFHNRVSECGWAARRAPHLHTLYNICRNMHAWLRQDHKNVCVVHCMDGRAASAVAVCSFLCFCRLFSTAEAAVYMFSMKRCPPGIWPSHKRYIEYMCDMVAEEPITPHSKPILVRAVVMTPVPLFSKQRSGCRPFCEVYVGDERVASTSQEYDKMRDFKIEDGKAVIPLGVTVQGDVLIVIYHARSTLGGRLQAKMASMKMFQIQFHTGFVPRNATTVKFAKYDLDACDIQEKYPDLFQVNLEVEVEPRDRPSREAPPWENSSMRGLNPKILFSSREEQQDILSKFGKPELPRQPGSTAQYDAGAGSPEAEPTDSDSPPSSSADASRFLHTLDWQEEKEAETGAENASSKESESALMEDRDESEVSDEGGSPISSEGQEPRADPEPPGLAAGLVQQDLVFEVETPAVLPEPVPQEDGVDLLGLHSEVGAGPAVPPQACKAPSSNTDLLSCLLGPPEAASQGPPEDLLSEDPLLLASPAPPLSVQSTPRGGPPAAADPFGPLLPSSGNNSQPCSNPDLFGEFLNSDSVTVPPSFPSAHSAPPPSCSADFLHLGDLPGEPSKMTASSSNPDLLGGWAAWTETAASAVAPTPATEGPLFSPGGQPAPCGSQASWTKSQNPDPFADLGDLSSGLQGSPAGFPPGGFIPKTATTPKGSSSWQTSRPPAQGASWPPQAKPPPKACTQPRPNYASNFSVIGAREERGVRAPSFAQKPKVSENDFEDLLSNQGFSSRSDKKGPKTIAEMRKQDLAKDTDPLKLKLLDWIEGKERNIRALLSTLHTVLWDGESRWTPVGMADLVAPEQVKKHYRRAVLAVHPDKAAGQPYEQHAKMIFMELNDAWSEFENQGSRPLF", "details": "for logFC of GAK (O14976): down; for logFC GAK: GAK (O14976), direction down"}, "[2]": {"target": "protein kinases (human kinome) (Homo sapiens, UniProt P11802)", "sequence (P11802 whole entry)": "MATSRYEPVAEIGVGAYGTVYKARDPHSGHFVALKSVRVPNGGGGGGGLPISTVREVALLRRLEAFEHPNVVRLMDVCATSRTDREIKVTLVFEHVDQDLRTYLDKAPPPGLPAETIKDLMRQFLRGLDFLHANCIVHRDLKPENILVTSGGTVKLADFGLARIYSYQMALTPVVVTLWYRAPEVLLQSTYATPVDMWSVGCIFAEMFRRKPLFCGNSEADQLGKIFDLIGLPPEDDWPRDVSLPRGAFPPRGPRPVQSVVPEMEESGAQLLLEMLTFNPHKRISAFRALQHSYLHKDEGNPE"}, "[3]": {"target": "protein kinases (human kinome) (Homo sapiens, UniProt Q2M2I8)", "sequence (Q2M2I8 whole entry)": "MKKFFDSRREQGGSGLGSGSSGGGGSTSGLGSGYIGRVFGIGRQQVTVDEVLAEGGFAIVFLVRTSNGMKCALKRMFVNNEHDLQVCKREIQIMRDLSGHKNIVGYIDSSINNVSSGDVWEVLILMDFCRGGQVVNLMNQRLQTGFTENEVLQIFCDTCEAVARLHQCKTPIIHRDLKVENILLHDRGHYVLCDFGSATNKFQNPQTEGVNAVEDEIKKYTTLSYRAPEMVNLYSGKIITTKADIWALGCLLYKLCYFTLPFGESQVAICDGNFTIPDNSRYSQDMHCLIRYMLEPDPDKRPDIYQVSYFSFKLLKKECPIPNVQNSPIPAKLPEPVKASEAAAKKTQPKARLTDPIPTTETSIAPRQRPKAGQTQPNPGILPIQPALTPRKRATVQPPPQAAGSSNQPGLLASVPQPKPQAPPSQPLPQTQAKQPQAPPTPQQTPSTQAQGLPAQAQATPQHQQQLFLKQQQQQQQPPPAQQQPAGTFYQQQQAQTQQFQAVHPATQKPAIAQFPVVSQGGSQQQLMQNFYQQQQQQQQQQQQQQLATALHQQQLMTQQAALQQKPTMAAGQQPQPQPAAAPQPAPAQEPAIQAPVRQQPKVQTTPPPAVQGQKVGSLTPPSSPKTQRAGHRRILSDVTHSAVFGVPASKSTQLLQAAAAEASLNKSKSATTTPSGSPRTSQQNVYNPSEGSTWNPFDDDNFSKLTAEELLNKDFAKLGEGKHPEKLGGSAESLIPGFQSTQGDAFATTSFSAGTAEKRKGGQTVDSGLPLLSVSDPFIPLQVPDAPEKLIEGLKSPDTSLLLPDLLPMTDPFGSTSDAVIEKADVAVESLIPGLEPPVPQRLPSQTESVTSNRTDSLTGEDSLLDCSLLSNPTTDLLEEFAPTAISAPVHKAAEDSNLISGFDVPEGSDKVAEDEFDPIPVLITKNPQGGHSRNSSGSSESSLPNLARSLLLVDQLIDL"}, "[4]": {"target": "protein kinases (human kinome) (Homo sapiens, UniProt P30291)", "sequence (P30291 whole entry)": "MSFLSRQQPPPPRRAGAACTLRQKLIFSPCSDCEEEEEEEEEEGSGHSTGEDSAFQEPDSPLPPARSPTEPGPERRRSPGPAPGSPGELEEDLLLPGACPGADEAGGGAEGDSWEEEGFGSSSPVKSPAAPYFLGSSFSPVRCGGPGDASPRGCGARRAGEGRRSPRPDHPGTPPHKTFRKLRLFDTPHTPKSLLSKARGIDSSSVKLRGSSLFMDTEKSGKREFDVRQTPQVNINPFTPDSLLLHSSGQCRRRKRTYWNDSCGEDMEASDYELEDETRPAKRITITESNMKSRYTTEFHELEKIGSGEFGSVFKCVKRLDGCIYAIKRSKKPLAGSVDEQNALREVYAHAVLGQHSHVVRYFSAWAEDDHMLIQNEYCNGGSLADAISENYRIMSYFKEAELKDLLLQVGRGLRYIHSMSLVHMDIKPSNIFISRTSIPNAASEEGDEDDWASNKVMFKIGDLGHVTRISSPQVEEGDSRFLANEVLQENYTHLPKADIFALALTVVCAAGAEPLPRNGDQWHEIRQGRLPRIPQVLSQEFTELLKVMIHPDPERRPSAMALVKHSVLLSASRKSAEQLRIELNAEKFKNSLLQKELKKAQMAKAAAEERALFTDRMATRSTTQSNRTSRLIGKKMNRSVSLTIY", "details": "for logFC of WEE1: WEE1 P30291-1"}, "[5]": {"target": "protein kinases (human kinome) (Homo sapiens, UniProt P16591)", "sequence (P16591 whole entry)": "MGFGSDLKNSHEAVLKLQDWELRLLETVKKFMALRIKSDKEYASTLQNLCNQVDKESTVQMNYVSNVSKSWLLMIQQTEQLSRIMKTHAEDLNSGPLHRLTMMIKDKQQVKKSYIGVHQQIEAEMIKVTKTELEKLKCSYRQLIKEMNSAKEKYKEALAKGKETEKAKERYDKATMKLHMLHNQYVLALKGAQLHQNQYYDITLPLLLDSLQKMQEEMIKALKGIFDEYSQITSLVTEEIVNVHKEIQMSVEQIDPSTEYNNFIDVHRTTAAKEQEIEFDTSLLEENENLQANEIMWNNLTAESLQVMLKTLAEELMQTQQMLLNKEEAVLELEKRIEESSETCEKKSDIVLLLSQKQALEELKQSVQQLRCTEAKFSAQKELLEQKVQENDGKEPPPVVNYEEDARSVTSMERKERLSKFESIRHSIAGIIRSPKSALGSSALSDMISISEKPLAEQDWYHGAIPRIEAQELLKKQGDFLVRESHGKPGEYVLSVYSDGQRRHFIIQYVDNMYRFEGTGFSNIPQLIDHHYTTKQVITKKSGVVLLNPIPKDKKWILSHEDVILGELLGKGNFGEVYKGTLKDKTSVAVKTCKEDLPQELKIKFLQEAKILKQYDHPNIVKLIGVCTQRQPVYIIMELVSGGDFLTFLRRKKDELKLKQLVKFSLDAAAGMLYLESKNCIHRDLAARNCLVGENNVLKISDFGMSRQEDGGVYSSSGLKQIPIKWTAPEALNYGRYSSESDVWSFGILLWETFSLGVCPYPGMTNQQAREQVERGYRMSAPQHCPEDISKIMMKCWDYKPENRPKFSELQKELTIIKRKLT", "details": "for logFC of FER (P16591-1): down; for logFC of FER: FER P16591-1"}, "[6]": {"details": "AAK1 (Q2M218-1), experiment wp117, down"}, "[7]": {"details": "AAK1, accession Q2M218-1, experiment wp117, direction of change down"}}, "note": "Read-outs that look alike come from different tables or passages of the source.", "data": [{"smiles": "CS(=O)(=O)Nc1cccc(-c2csc3cnc(Nc4ccc(N5CCN(CCCCCOc6cccc7c6C(=O)N(C6CCC(=O)NC6=O)C7=O)CC5)cc4)nc23)c1", "note": "(stereo not shown) [DB0614, N-(3-(2-((4-(4-(5-((2-(2,6-Dioxopiperidin-3-yl)-1,3-dioxoisoindolin-4-yl)oxy)pentyl)piperazin-1-yl)phenyl)amino)thieno[3,2-d]pyrimidin-7-yl)phenyl)methanesulfonamide]", "values": [{"measurement": "logFC of GAK (O14976)", "setting": "[1]; Experiment wp045", "value": "−0.3305"}, {"measurement": "logFC of GAK (O14976)", "setting": "[1]; Experiment wp117", "value": "−0.4196"}, {"measurement": "logFC GAK", "setting": "[1]; experiment wp045", "value": "−0.3305"}, {"measurement": "logFC GAK", "setting": "[1]; experiment wp117", "value": "−0.4196"}, {"measurement": "logFC CDK4 (P11802)", "setting": "[2]; experiment wp045", "value": "−1.539"}, {"measurement": "logFC CDK4 (P11802)", "setting": "[2]; experiment wp117", "value": "−1.539"}, {"measurement": "logFC AAK1", "setting": "[3]; AAK1 (Q2M218-1), experiment wp045, down", "value": "−1.863"}, {"measurement": "logFC AAK1", "setting": "[3]; [6]", "value": "−1.652"}, {"measurement": "logFC AAK1", "setting": "[3]; AAK1, accession Q2M218-1, experiment wp045, direction of change down", "value": "−1.863"}, {"measurement": "logFC AAK1", "setting": "[3]; [7]", "value": "−1.662"}, {"measurement": "logFC of WEE1", "setting": "[4]; experiment wp117", "value": "−1.777"}, {"measurement": "logFC WEE1 (P30291-1)", "setting": "[4]; experiment wp045", "value": "−1.876"}, {"measurement": "logFC WEE1 (P30291-1)", "setting": "[4]; experiment wp117", "value": "−1.777"}, {"measurement": "logFC of FER (P16591-1)", "setting": "[5]; Experiment wp045", "value": "−0.7641"}, {"measurement": "logFC of FER (P16591-1)", "setting": "[5]; Experiment wp117", "value": "−0.7725"}, {"measurement": "logFC of FER", "setting": "[5]; experiment wp045", "value": "−0.7641"}, {"measurement": "logFC of FER", "setting": "[5]; experiment wp117", "value": "−0.7725"}]}, {"smiles": "Cc1ncsc1-c1ccc([C@H](C)NC(=O)[C@@H]2C[C@@H](O)CN2C(=O)[C@@H](NC(=O)CCOCCOCCN2CCN(c3ccc(Nc4ncc(Cl)c(Nc5ccccc5S(=O)(=O)C(C)C)n4)cc3)CC2)C(C)(C)C)cc1", "note": "[FMF.06.098.1]", "values": [{"measurement": "logFC of GAK (O14976)", "setting": "[1]; Experiment wp108", "value": "−0.4156"}, {"measurement": "logFC of GAK (O14976)", "setting": "[1]; Experiment wp131", "value": "−0.3469"}, {"measurement": "logFC GAK", "setting": "[1]; experiment wp108", "value": "−0.4156"}, {"measurement": "logFC GAK", "setting": "[1]; experiment wp131", "value": "−0.3469"}, {"measurement": "logFC CDK4 (P11802)", "setting": "[2]; Experiment wp108", "value": "−0.8731"}, {"measurement": "logFC CDK4 (P11802)", "setting": "[2]; experiment wp114", "value": "−0.3781"}, {"measurement": "logFC CDK4 (P11802)", "setting": "[2]; experiment wp131", "value": "−1.029"}, {"measurement": "logFC AAK1", "setting": "[3]; AAK1 (Q2M218-1), experiment wp108, down", "value": "−0.4346"}, {"measurement": "logFC AAK1", "setting": "[3]; AAK1 (Q2M218-1), experiment wp114, down", "value": "−0.485"}, {"measurement": "logFC AAK1", "setting": "[3]; AAK1 (Q2M218-1), experiment wp131, down", "value": "−0.7293"}, {"measurement": "logFC AAK1", "setting": "[3]; AAK1, accession Q2M218-1, experiment wp108, direction of change down", "value": "−0.4346"}, {"measurement": "logFC AAK1", "setting": "[3]; AAK1, accession Q2M218-1, experiment wp114, direction of change down", "value": "−0.485"}, {"measurement": "logFC AAK1", "setting": "[3]; AAK1, accession Q2M218-1, experiment wp131, direction of change down", "value": "−0.7293"}, {"measurement": "logFC WEE1 (P30291-1)", "setting": "[4]; Experiment wp108", "value": "−1.98"}, {"measurement": "logFC of WEE1", "setting": "[4]; experiment wp108", "value": "−1.98"}, {"measurement": "logFC of WEE1", "setting": "[4]; experiment wp131", "value": "−2.183"}, {"measurement": "logFC WEE1 (P30291-1)", "setting": "[4]; experiment wp131", "value": "−2.183"}, {"measurement": "logFC of FER (P16591-1)", "setting": "[5]; Experiment wp108", "value": "−0.3577"}, {"measurement": "logFC of FER (P16591-1)", "setting": "[5]; Experiment wp131", "value": "−0.4871"}, {"measurement": "logFC of FER", "setting": "[5]; experiment wp108", "value": "−0.3577"}, {"measurement": "logFC of FER", "setting": "[5]; experiment wp131", "value": "−0.4871"}]}, {"smiles": "Cc1ncsc1-c1ccc([C@H](C)NC(=O)[C@@H]2C[C@@H](O)CN2C(=O)[C@@H](NC(=O)CCCCCN2CCN(c3ccc(Nc4ncc5scc(-c6cccc(NS(C)(=O)=O)c6)c5n4)cc3)CC2)C(C)(C)C)cc1", "note": "[RSS0680, (2S,4R)-1-((S)-3,3-Dimethyl-2-(6-(4-(4-((7-(3-(methylsulfonamido)phenyl)thieno[3,2-d]pyrimidin-2-yl)amino)phenyl)piperazin-1-yl)hexanamido)butanoyl)-4-hydroxy-N—((S)-1-(4-(4-methylthiazol-5yl)phenyl)ethyl)pyrrolidine-2-carboxamide]", "values": [{"measurement": "logFC of GAK (O14976)", "setting": "[1]; Experiment wp080", "value": "−0.7773"}, {"measurement": "logFC of GAK (O14976)", "setting": "[1]; Experiment wp117", "value": "−0.6853"}, {"measurement": "logFC GAK", "setting": "[1]; experiment wp080", "value": "−0.7773"}, {"measurement": "logFC GAK", "setting": "[1]; experiment wp117", "value": "−0.6853"}, {"measurement": "logFC CDK4 (P11802)", "setting": "[2]; experiment wp080", "value": "−1.724"}, {"measurement": "logFC CDK4 (P11802)", "setting": "[2]; experiment wp117", "value": "−1.679"}, {"measurement": "logFC AAK1", "setting": "[3]; AAK1 (Q2M218-1), experiment wp080, down", "value": "−1.392"}, {"measurement": "logFC AAK1", "setting": "[3]; [6]", "value": "−1.05"}, {"measurement": "logFC AAK1", "setting": "[3]; AAK1, accession Q2M218-1, experiment wp080, direction of change down", "value": "−1.392"}, {"measurement": "logFC AAK1", "setting": "[3]; [7]", "value": "−1.05"}, {"measurement": "logFC of WEE1", "setting": "[4]; experiment wp080", "value": "−2.359"}, {"measurement": "logFC of WEE1", "setting": "[4]; experiment wp117", "value": "−1.85"}, {"measurement": "logFC WEE1 (P30291-1)", "setting": "[4]; experiment wp080", "value": "−2.359"}, {"measurement": "logFC WEE1 (P30291-1)", "setting": "[4]; experiment wp117", "value": "−1.85"}]}]}
